US7041470B2, “Method of assaying the susceptibility of biofilms to anti-microbial agents” (University Technologies International, Inc., priority 1996, dated 2006)

Tests used:
Assay type in all cases: cell-based
[1] = tested on: staphylococcus epidermidis biofilm; assay: staphylococcus epidermidis biofilm, optical density reading of turbidity; conditions: 490 nm
Experimental: (§1) Up to 8 different antibiotics or biocides can be tested by using 1 row (A-H) for each antimicrobial reagent. […] Rinse the remaining projections in PBS using a troughed vessel 20 and place the colonized projections into the 96 well antibiotic plate and incubate overnight at 37° C. […] (3) From the freshly sonicated plate remove 0.02 ml of the medium from each well and spot plate neat; and 0.025 ml from each well to prepare a serial dilution (10^−1 to 10^−6) and spot plate 0.02 ml (dilutions can be done in microtiter plates, one for each antibiotic). Place the plate containing the remaining medium and bacteria to incubate at 37° C., overnight. Day 4: Assay the sessile survival, by for example reading the plate incubated overnight at 490 nm or by counting the colonies on the plates to determine the actual number of surviving bacteria, or by using some other method known in the art.

[2] = tested on: Escherichia coli biofilm; assay: Escherichia coli biofilm, optical density reading of turbidity; conditions: 490 nm
Experimental: as §1

[3] = tested on: staphylococcus aureus biofilm; assay: staphylococcus aureus biofilm on projections, antibiotic treatment, manual cfu count
Experimental: Up to 8 different antibiotics or biocides can be tested by using 1 row (A-H) for each antimicrobial reagent. […] Rinse the remaining projections in PBS using a troughed vessel 20 and place the colonized projections into the 96 well antibiotic plate and incubate overnight at 37° C. […] (3) From the freshly sonicated plate remove 0.02 ml of the medium from each well and spot plate neat; and 0.025 ml from each well to prepare a serial dilution (10^-1 to 10^-6) and spot plate 0.02 ml (dilutions can be done in microtiter plates, one for each antibiotic). Place the plate containing the remaining medium and bacteria to incubate at 37° C., overnight. Day 4: Assay the sessile survival, by for example reading the plate incubated overnight at 490 nm or by counting the colonies on the plates to determine the actual number of surviving bacteria, or by using some other method known in the art. Several different conventional methods may be used to count the bacteria. It may be done by incubating the sonicated bacteria, taking serial dilutions and visually counting the colony forming units, or automated methods may be used, as for example using an optical reader to determine optical density. […] In the case of using vital dye technology, the biofilm need not be further incubated. In a further embodiment, the assay may be carried out by sonicating the cells until they lyse and release ATP and then adding luciferase to produce a mechanically readable light output. In a still further embodiment, the assay may be carried out directly on the biofilm on the projections using a confocal microscope, although it should be considered that this is difficult to automate. […] Examples are given to show a comparison between counts of planktonic bacteria and counts of sessile bacteria for the same growth conditions. […] The antibiotic was applied to the wells 2-12 of the rows A-G of a 96 well plate as follows: well 2: no antibiotic, well 3: 1000 μg/mL, well 4: 500 μg/mL . . . well 12: 2 μg/mL.

[4] = well 5 of doubling dilutions, well 3: 1000 μg/mL to well 12: 2 μg/mL
[5] = well 6 of doubling dilutions, well 3: 1000 μg/mL to well 12: 2 μg/mL ([…] implied)
[6] = well 7 of doubling dilutions, well 3: 1000 μg/mL to well 12: 2 μg/mL
[7] = well 8 of doubling dilutions, well 3: 1000 μg/mL to well 12: 2 μg/mL
[8] = well 9 of doubling dilutions, well 3: 1000 μg/mL to well 12: 2 μg/mL
[9] = well 10 of doubling dilutions, well 3: 1000 μg/mL to well 12: 2 μg/mL ([…] implied)
[10] = well 11 of doubling dilutions, well 3: 1000 μg/mL to well 12: 2 μg/mL

For CC(C)(O/N=C(\C(=O)N[C@@H]1C(=O)N2C(C(=O)[O-])=C(C[n+]3ccccc3)CS[C@H]12)c1csc(N)n1)C(=O)O [F, ceftazidine], the “optical density reading of turbidity, staphylococcus epidermidis biofilm” value ([1]; well 3: 1000 μg/mL antibiotic) was “.897”, the “optical density reading of turbidity, staphylococcus epidermidis biofilm” value ([1]; well 4: 500 μg/mL antibiotic) was “.888” and the “optical density reading of turbidity, staphylococcus epidermidis biofilm” value [1, 4] was 1.013. The “optical density reading of turbidity, staphylococcus epidermidis biofilm” value [1, 5] was “.855”, the “optical density reading of turbidity, staphylococcus epidermidis biofilm” value [1, 6] was “.992” and the “optical density reading of turbidity, staphylococcus epidermidis biofilm” value [1, 7] was “.903”. The “optical density reading of turbidity, staphylococcus epidermidis biofilm” value [1, 8] was “.920”, the “optical density reading of turbidity, staphylococcus epidermidis biofilm” value [1, 9] was “.850” and the “optical density reading of turbidity, staphylococcus epidermidis biofilm” value [1, 10] was “.843”. For the same compound, the “optical density reading of turbidity, staphylococcus epidermidis biofilm” value ([1]; well 12: 2 μg/mL antibiotic) was “.902”, the “optical density reading of turbidity, Escherichia coli biofilm” value ([2]; well 3: 1000 μg/mL antibiotic) was “.121” and the “optical density reading of turbidity, Escherichia coli biofilm” value ([2]; well 4: 500 μg/mL antibiotic) was “.123”. For the same compound, the “optical density reading of turbidity, Escherichia coli biofilm” value [2, 4] was 1.158, the “optical density reading of turbidity, Escherichia coli biofilm” value [2, 5] was “.121” and the “optical density reading of turbidity, Escherichia coli biofilm” value [2, 7] was “.120”. The “optical density reading of turbidity, Escherichia coli biofilm” value [2, 8] was “.123”, the “optical density reading of turbidity, Escherichia coli biofilm” value [2, 9] was 1.152 and the “optical density reading of turbidity, Escherichia coli biofilm” value [2, 10] was 1.249. For the same compound, the “optical density reading of turbidity, Escherichia coli biofilm” value ([2]; well 12: 2 μg/mL antibiotic) was 1.268, the “manually counted cfu, staphylococcus aureus biofilm” value (“manually counted cfu” below) ([3]; well 3: 1000 μg/mL antibiotic) was 0 cfu and the “manually counted cfu” value ([3]; well 4: 500 μg/mL antibiotic) was 1.0 × 10^2 cfu. The “manually counted cfu” value [3, 4] was 0 cfu, the “manually counted cfu” value [3, 5] was 1.0 × 10^2 cfu and the “manually counted cfu” value [3, 6] was 50 cfu. The “manually counted cfu” value [3, 7] was 0 cfu, the “manually counted cfu” value [3, 8] was 0 cfu and the “manually counted cfu” value [3, 9] was 1.0 × 10^5 cfu. The “manually counted cfu” value [3, 10] was 4.0 × 10^5 cfu and the “manually counted cfu” value ([3]; well 12: 2 μg/mL antibiotic) was 9.0 × 10^5 cfu.
